Experimental data reported in PMC7227612 (Clinical cancer research : an official journal of the …, 2009).
Marks after values point to notes of the source that are not given here.

Key:
[1] = Steady-state plasma pharmacokinetics, group A; assay type: in vivo, human; conditions: for Cav,ss: geometric mean (%CV); for Cmax / Tmax: human, plasma, oral
[2] = Steady-state plasma pharmacokinetics, group B; assay type: in vivo, human; conditions: for Cmax / Tmax: human, plasma, oral; for Cmax: Cmax,ss
[3] = Toxicity and dose limiting toxicity; assay type: in vivo
[4] = system: recurrent malignant glioma; test: Tumor response; assay type: in vivo, human
[5] = system: phosphorylated GSK3β (pGSK3β); test: pGSK3β in patient peripheral blood mononuclear cells; assay type: in vivo, human
GSK3β = test: Inhibition of GSK3β phosphorylation and activity in glioma cells in vitro; assay type: cell-based; conditions: Supplementary Fig. S1, concentration dependent
glioma cells = test: Cytotoxic activity against glioma cells in vitro; assay type: cell-based; conditions: Supplementary Fig. S1, concentration dependent
[6] = Group B, 500 mg twice daily, Patient 2
[7] = Group B, 1,000 mg daily, Patient 1
[8] = Group B, 1,000 mg daily, Patient 2
[9] = 500 mg, Group B, 500 mg twice daily, Patient 2
[10] = 1000 mg daily, Group B, 1,000 mg daily, Patient 1
[11] = 1000 mg daily, Group B, 1,000 mg daily, Patient 2

Q: What does the source list for Cn1cc(C2=C(c3cn(C4CCN(Cc5ccccn5)CC4)c4ccccc34)C(=O)NC2=O)c2ccccc21 [Enzastaurin]?
A: Cav,ss ([1]; DL 1, 800 mg daily, n = 12): 1,130 (89) nmol/L; Cav,ss ([1]; DL-1, 250 mg twice daily, n = 3): 1,040 (124) nmol/L; Cav,ss ([1]; DL-1, 500 mg daily, n = 5): 472 (109) nmol/L; Cmax ([1]; 250 mg): 1390 nM; Tmax ([1]; 250 mg): 6.03 h; Cmax ([1]; 400 mg): 2710 nM; Tmax ([1]; 400 mg): 4.03 h; Cmax ([1]; 500 mg): 979 nM; Tmax ([1]; 500 mg): 2.08 h; Tmax ([1]; 800 mg): 4 h; CL/F [2, 6]: 27 L/h; Cav,ss [2, 6]: 3,050 nmol/L; CL/F [2, 7]: 60 L/h; Cav,ss [2, 7]: 1,340 nmol/L; CL/F [2, 8]: 60 L/h; Cav,ss [2, 8]: 1,350 nmol/L; Cmax [2, 9]: 4.09 µM; Tmax [2, 9]: 4 h; Cmax [2, 10]: 3.01 µM; Cmax [2, 11]: 2.73 µM; Tmax [2, 10]: 4 h; Tmax [2, 11]: 2 h; Dose-limiting toxicities ([3]; human, in vivo): thrombocytopenia and prolonged QTc; Elevated ALT, Grade 1-2 ([3]; human, in vivo): 5 (23%); Elevated ALT, Grade 3-4 ([3]; human, in vivo): 1; Elevated AST, Grade 1-2 ([3]; human, in vivo): 9 (41%); Elevated AST, Grade 3-4 ([3]; human, in vivo): 0; Hematuria, Grade 1-2 ([3]; human, in vivo): 1; Hematuria, Grade 3-4 ([3]; human, in vivo): 0; Hypermagnesemia, Grade 1-2 ([3]; human, in vivo): 1; Hypermagnesemia, Grade 3-4 ([3]; human, in vivo): 0; Intracranial hemorrhage, Grade 1-2 ([3]; human, in vivo): 0; Intracranial hemorrhage, Grade 3-4 ([3]; human, in vivo): 0; Nausea, Grade 1-2 ([3]; human, in vivo): 1; Nausea, Grade 3-4 ([3]; human, in vivo): 0; Proteinuria, Grade 1-2 ([3]; human, in vivo): 1; Proteinuria, Grade 3-4 ([3]; human, in vivo): 0; QTc prolongation, Grade 1-2 ([3]; human, in vivo): 5 (23%); QTc prolongation, Grade 3-4 ([3]; human, in vivo): 2 (9%) ^*; Relationship between QTcB changes from baseline and plasma concentrations ([3]; human, in vivo): no significant relationship; Thrombocytopenia, Grade 1-2 ([3]; human, in vivo): 6 (27%); Thrombocytopenia, Grade 3-4 ([3]; human, in vivo): 5 (23%); Patients with dose limiting grade 3 thrombocytopenia ([3]; human, in vivo, 6 wk): 2; Elevated ALT, Grade 5 ([3]; number of patients, N = 22): 0; Elevated AST, Grade 5 ([3]; number of patients, N = 22): 0; Hematuria, Grade 5 ([3]; number of patients, N = 22): 0; Hypermagnesemia, Grade 5 ([3]; number of patients, N = 22): 0; Nausea, Grade 5 ([3]; number of patients, N = 22): 0; Proteinuria, Grade 5 ([3]; number of patients, N = 22): 0; QTc prolongation, Grade 5 ([3]; number of patients, N = 22): 0; Thrombocytopenia, Grade 5 ([3]; number of patients, N = 22): 0; Intracranial hemorrhage, Grade 5 ([3]; number of patients, N = 22, in the setting of grade 3 thrombocytopenia): 1 ^†; Complete response (patients) ([4]; 19 patients evaluable): 1; Partial response (patients) ([4]; 19 patients evaluable): 1; Objective responses ([4]; 19 patients evaluable for radiographic response): 11%; Median overall survival ([4]; entire study group): 5.7 months; Median progression-free survival ([4]; entire study group): 1.4 months; Duration complete response maintained on therapy ([4]; one patient, Fig. 2): > 3 y; pGSK3β levels at steady state vs baseline ([5]; five patients who achieved disease control): decreased from baseline; pGSK3β at steady state vs baseline ([5]; one patient with progressive disease, after the first 3 weeks of therapy): increased; Kinetics of pGSK3β in peripheral blood mononuclear cells after administration ([5]; two patients, Fig. 3B): decrease in a time dependent manner; Phosphorylation and activity of GSK3β (GSK3β): inhibits; Cytotoxicity (glioma cells): direct cytotoxic activity
